Source: the supplement of paper PMC11208160
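Note: IS621 bridge recombinase in Escherichia coli cells against a fixed T5 target plasmid.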

Assay: recombinant UMI read abundance after kanamycin selection (control-corrected) (log10(CPM+1)); higher = more efficient recombination; extreme values may be limits of the assay; sequences stand for … in AGTGCAGAGAAAATCGGCCAGTTTTCTCTGCCTGCAGTCCGCATGCCGTGGGACCCCTTGGGTTCTAACCTGTTGCCTAGATTTATGCAGCGGACTGCCTTTCTCCCAAAGTGATAAACCGG…AGGTTGGTTTCACT; site = the 11-nt donor
In short: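 Reported values are log10(CPM+1) from a pooled Escherichia coli screen of donor and donor-binding-loop pairs for the IS621 bridge recombinase. Selection used IPTG (0.07 mM) plus kanamycin, against unselected plating, each in two replicates. Recombinant UMIs were amplified across the donor–target junction, sequenced, converted to CPM, averaged over replicates and scaled by control-derived factors.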
For “TGTTCCCCATGGACCGGTTTTCCCGGTAATCCGTATTTGCA (site TGTTCCCCTTC)”, the “recombinant UMI read abundance (log10)” value was 0.0115.
With “TGTTCCCCATGGACCGGTTTTCCCGGTAATCCGTATTTGCA (site TGTTCCCCTTG)” the “recombinant UMI read abundance (log10)” value was 0.256.
For “TGTTCCCCATGGACCGGTTTTCCCGGTAATCCGTATTTGCA (site TGTTCCCCTTT)”, the “recombinant UMI read abundance (log10)” value was 0.0133.
In the case of “TGTTCCCCATGGACCGGTTTTCCCGGTAATCCGTATTTGTA (site AGTTCCCCTTA)”, the “recombinant UMI read abundance (log10)” value is reported as 0.355.
For “TGTTCCCCATGGACCGGTTTTCCCGGTAATCCGTATTTGTA (site CGTTCCCCTTA)”, the “recombinant UMI read abundance (log10)” value was 0.193.
With “TGTTCCCCATGGACCGGTTTTCCCGGTAATCCGTATTTGTA (site GGTTCCCCTTA)” the “recombinant UMI read abundance (log10)” value was 0.00981.
For “TGTTCCCCATGGACCGGTTTTCCCGGTAATCCGTATTTGTA (site TATTCCCCTTA)”, the “recombinant UMI read abundance (log10)” value was 0.0123.
For “TGTTCCCCATGGACCGGTTTTCCCGGTAATCCGTATTTGTA (site TCTTCCCCTTA)”, the “recombinant UMI read abundance (log10)” value was 0.0139.
With “TGTTCCCCATGGACCGGTTTTCCCGGTAATCCGTATTTGTA (site TGATCCCCTTA)” the “recombinant UMI read abundance (log10)” value was 0.0165.
For “TGTTCCCCATGGACCGGTTTTCCCGGTAATCCGTATTTGTA (site TGCTCCCCTTA)”, the “recombinant UMI read abundance (log10)” value was 0.377.
With “TGTTCCCCATGGACCGGTTTTCCCGGTAATCCGTATTTGTA (site TGGTCCCCTTA)” the “recombinant UMI read abundance (log10)” value was 0.
With “TGTTCCCCATGGACCGGTTTTCCCGGTAATCCGTATTTGTA (site TGTACCCCTTA)” the “recombinant UMI read abundance (log10)” value was 0.0227.
With “TGTTCCCCATGGACCGGTTTTCCCGGTAATCCGTATTTGTA (site TGTCCCCCTTA)” the “recombinant UMI read abundance (log10)” value was 0.136.
In the case of “TGTTCCCCATGGACCGGTTTTCCCGGTAATCCGTATTTGTA (site TGTGCCCCTTA)”, the “recombinant UMI read abundance (log10)” value is reported as 0.013.
With “TGTTCCCCATGGACCGGTTTTCCCGGTAATCCGTATTTGTA (site TGTTACCCTTA)” the “recombinant UMI read abundance (log10)” value was 0.177.
For “TGTTCCCCATGGACCGGTTTTCCCGGTAATCCGTATTTGTA (site TGTTCACCTTA)”, the “recombinant UMI read abundance (log10)” value was 0.00592.
In the case of “TGTTCCCCATGGACCGGTTTTCCCGGTAATCCGTATTTGTA (site TGTTCCACTTA)”, the “recombinant UMI read abundance (log10)” value is reported as 0.0238.
In the case of “TGTTCCCCATGGACCGGTTTTCCCGGTAATCCGTATTTGTA (site TGTTCCCCTAA)”, the “recombinant UMI read abundance (log10)” value is reported as 0.0105.
For “TGTTCCCCATGGACCGGTTTTCCCGGTAATCCGTATTTGTA (site TGTTCCCCTCA)”, the “recombinant UMI read abundance (log10)” value was 0.0333.
For “TGTTCCCCATGGACCGGTTTTCCCGGTAATCCGTATTTGTA (site TGTTCCCCTGA)”, the “recombinant UMI read abundance (log10)” value was 0.
With “TGTTCCCCATGGACCGGTTTTCCCGGTAATCCGTATTTGTA (site TGTTCCCCTTA)” the “recombinant UMI read abundance (log10)” value was 0.625.
In the case of “TGTTCCCCATGGACCGGTTTTCCCGGTAATCCGTATTTGTA (site TGTTCCCCTTC)”, the “recombinant UMI read abundance (log10)” value is reported as 0.00924.
With “TGTTCCCCATGGACCGGTTTTCCCGGTAATCCGTATTTGTA (site TGTTCCCCTTG)” the “recombinant UMI read abundance (log10)” value was 0.00318.
With “TGTTCCCCATGGACCGGTTTTCCCGGTAATCCGTATTTGTA (site TGTTCCCCTTT)” the “recombinant UMI read abundance (log10)” value was 0.0256.
In the case of “TGTTCCCCATGGACCGGTTTTCCCGGTAATCCGTATTTGTA (site TGTTCCGCTTA)”, the “recombinant UMI read abundance (log10)” value is reported as 0.0259.
With “TGTTCCCCATGGACCGGTTTTCCCGGTAATCCGTATTTGTA (site TGTTCCTCTTA)” the “recombinant UMI read abundance (log10)” value was 0.105.
In the case of “TGTTCCCCATGGACCGGTTTTCCCGGTAATCCGTATTTGTA (site TGTTCGCCTTA)”, the “recombinant UMI read abundance (log10)” value is reported as 0.0106.
For “TGTTCCCCATGGACCGGTTTTCCCGGTAATCCGTATTTGTA (site TGTTCTCCTTA)”, the “recombinant UMI read abundance (log10)” value was 0.0643.
In the case of “TGTTCCCCATGGACCGGTTTTCCCGGTAATCCGTATTTGTA (site TGTTGCCCTTA)”, the “recombinant UMI read abundance (log10)” value is reported as 0.0058.
With “TGTTCCCCATGGACCGGTTTTCCCGGTAATCCGTATTTGTA (site TGTTTCCCTTA)” the “recombinant UMI read abundance (log10)” value was 0.381.
For “TGTTCCCCATGGACCGGTTTTCCCGGTAATCCGTATTTGTA (site TTTTCCCCTTA)”, the “recombinant UMI read abundance (log10)” value was 0.0217.
For “TGTTGCCCATGGACCGGTTTTCCCGGTAATCCGTATTTGTA (site TGTTACCCTTA)”, the “recombinant UMI read abundance (log10)” value was 0.032.
